Assay: Water Miscibility Test
Type: physicochemical
Settings: 0.5 g ionic liquid and 4.5 g de-ionized water, sonicated 1.5 hours; miscible if homogenous transparent system within 15 minutes of standing
Experimental: “Hydrophilic ionic compound” or “water miscible ionic compound” as used herein refers to ionic compound that is partially or wholly miscible with water, i.e. it is capable of forming a visually homogenous or transparent mixture with water according to the Water Miscibility Test described herein. The water miscibility of an ionic liquid is measured by the following water miscibility test. A mixture of 0.5 g ionic liquid and 4.5 g de-ionized water are sonicated in a Bransonic Ultrasonic Bath (model # 1210R-MTH, 50/60 Hz, 117 volts, 1.3 AMPS) according to manufacture's specifications for 1.5 hours. Thereafter, if a homogenous transparent system results within 15 minutes of standing without agitation, then the ionic liquid is water miscible.
In the case of “Tetraoctyl Ammonium Dodecylbenzenesulfonate [Example 3]”, the “Water Miscible?” value is reported as “No”.
With “Tetraoctyl Ammonium Mid-Chain Branched Dodecylsulfate [Example 1]” the “Water Miscible?” value was “No”.
In the case of “Triisooctylmethyl Ammonium Mid-Chain Branched Dodecylsulfate [Example 2]”, the “Water Miscible?” value is reported as “No”.

Source: patent US7786064B1, “Ionic liquids derived from functionalized anionic surfactants” (The Procter & Gamble Company, priority 2004, dated 2010)
